In patent publication US10822338B2, “Substituted aminoquinazoline compounds as A2A antagonist” (Merck Sharp & Dohme Corp., priority 2015, dated 2020):

Target: human A2A receptor (Homo sapiens (Human), UniProt P29274)
Test: A2A competition binding assay using Scintillation Proximity technology
Details: 0.25 μg of membranes from HEK293 cells expressing the human A2a receptor per well; 0.5 nM tritiated radioligand; Cheng-Prusoff
Procedure: Binding affinities of compounds of the invention for the human A2A receptor were determined in a competition binding assay using Scintillation Proximity technology. Thus, 1^μg (^ denotes 1 μg of membrane/well), or preferably 0.25 μg of membranes from HEK293 cells expressing the human A2a receptor were incubated with a compound of the invention at concentrations ranging from 3000 nM to 0.15 nM in a reaction mixture containing also 0.5 nM of a tritiated form of 5-amino-7-[2-phenethyl]-2-(furan-2-yl)-7H-pyrazolo[4,3-e][1,2,4]triazolo[1,5-c]pyrimidine (the tritiated compound) and 25 μg of wheat germ agglutin-coated yttrium silicate SPA beads for one hour at room temperature with agitation. The beads were then allowed to settle to the bottom of the wells for 1 hr, after which the membrane-associated radioactivity was determined by scintillation counting in a TopCount microplate reader. Ki values were determined using the Cheng-Prusoff equation.
HEK293 cells expressing the human, rat, dog or monkey adenosine 2a receptor (Purchased from Perkin-Elmer # RBHA2AM400UA).
The Tritiated compound was prepared in-house by MRL Radiochemistry according to published methods.
Wheat germ agglutinin-coated yttrium silicate SPA beads (GE Healthcare #RPNQ0023). Dilute to 25 mg/mL in assay buffer.
Assay Buffer was prepared in house: Dulbecco's calcium and magnesium free phosphate buffered saline+10 mM MgCl2
Adenosine deaminase from calf intestine, 10 mg/2 mL (Roche #10 102 105 001).
A2A antagonist standard (9-chloro-1-(2-furanyl)-[1,2,4]triazolo[1,5-c]quinazolin-5-amine from Tocris Bioscience)
Make eight 1:3 serial dilutions in 100% DMSO from a 3 mM compound stock
Transfer 50 nL of compound into a 384-well OptiPlate (Perkin Elmer).
Typically, final concentrations of compound used in the assay ranged from 3000 nM to 0.152 nM.
Dilute a solution of the Tritiated compound to 1.25 nM in assay buffer. This a 2.5× solution. The final concentration in the assay is 0.5 nM. Calculate the concentration by counting two 5 μL aliquots.
Use *1 ug or preferrably 0.25 ug of membrane/well. Dilute membranes to 9.7 μg/ml in assay buffer. Treat with 20 ug/ml adenosine deaminase (ADA) for 15 minutes at room temperature to degrade endogenous adenosine.
Use 25 μg/well wheat germ agglutinin-coated yttrium silicate SPA beads.
Mix ADA-treated membranes and SPA beads together for 30 min prior to assay.
To the Perkin-Elmer Optiplate-384 containing the compound titration add 20 μL of 2.5× solution of the Tritiated compound and 30 μL of the membrane-bead mixture. Incubate for one hour at room temperature with agitation.
Include total binding (assay buffer+1% DMSO) and non-specific binding (CGS15943, 1 μM) wells.
Allow the beads to settle for one hour.
A curve fitting program (i.e., Prism, Activity Base, Chemcart) is used to determine the EC50. The Ki value is calculated using the Cheng-Prusoff equation. Ki=EC50/(1+(radioligand concentration/Kd)) Counting and Calculations
Counting and calculations were performed as described within the “A2A Activity Binding of Compounds of the Invention” section. Using the foregoing methods, the following results were obtained using compounds of the invention described herein. Each example compound tested is reported in the following format: Example number: A2A Ki (nM) selectivity.

Chain of human A2A receptor (P29274 whole entry): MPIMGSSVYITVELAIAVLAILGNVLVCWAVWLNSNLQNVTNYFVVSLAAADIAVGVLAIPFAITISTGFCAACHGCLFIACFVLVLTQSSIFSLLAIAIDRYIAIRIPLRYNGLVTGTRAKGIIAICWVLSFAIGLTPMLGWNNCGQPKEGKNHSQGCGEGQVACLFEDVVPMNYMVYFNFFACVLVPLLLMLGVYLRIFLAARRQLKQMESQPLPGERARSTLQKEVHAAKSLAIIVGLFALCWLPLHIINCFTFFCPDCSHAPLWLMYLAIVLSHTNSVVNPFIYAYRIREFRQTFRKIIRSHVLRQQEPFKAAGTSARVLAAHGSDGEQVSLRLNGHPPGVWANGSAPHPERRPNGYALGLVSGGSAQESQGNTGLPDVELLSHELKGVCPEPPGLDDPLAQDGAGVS

Row | Structure (SMILES) | Ki
1 | COc1cccc2c1nc(N)n1nc(C3CCCC(CCC(F)(F)F)C3)nc21 (single isomer, unassigned) [Example 29A, 7-methoxy-2-(3-(3,3,3-trifluoropropyl)cyclohexyl)-[1,2,4]triazolo[1,5-c]quinazolin-5-amine] | 16 nM
2 | COc1cccc2c1nc(N)n1nc(C3CCCC(CCC(F)(F)F)C3)nc21 (single isomer, unassigned) [Example 29B, 7-methoxy-2-(3-(3,3,3-trifluoropropyl)cyclohexyl)-[1,2,4]triazolo[1,5-c]quinazolin-5-amine] | 1.7 nM
3 | COc1cccc2c1nc(N)n1nc(C3CCCC(CCC(F)(F)F)C3)nc21 (single isomer, unassigned) [Example 29C, 7-methoxy-2-(3-(3,3,3-trifluoropropyl)cyclohexyl)-[1,2,4]triazolo[1,5-c]quinazolin-5-amine] | 0.4 nM
4 | COc1cccc2c1nc(N)n1nc(C3CCCC(CCC(F)(F)F)C3)nc21 (single isomer, unassigned) [Example 29D, 7-methoxy-2-(3-(3,3,3-trifluoropropyl)cyclohexyl)-[1,2,4]triazolo[1,5-c]quinazolin-5-amine] | 17 nM
5 | COc1cccc2c1nc(N)n1nc(C3CCCC(N)C3)nc21 (single isomer, unassigned) [Example 30A, 2-(3-aminocyclohexyl)-7-methoxy-[1,2,4]triazolo[1,5-c]quinazolin-5-amine] | 91 nM
6 | COc1cccc2c1nc(N)n1nc(C3CCCC(N)C3)nc21 (single isomer, unassigned) [Example 30B, 2-(3-aminocyclohexyl)-7-methoxy-[1,2,4]triazolo[1,5-c]quinazolin-5-amine] | 44 nM
7 | COc1cccc2c1nc(N)n1nc(C3CCCC(N)C3)nc21 (single isomer, unassigned) [Example 30C, 2-(3-aminocyclohexyl)-7-methoxy-[1,2,4]triazolo[1,5-c]quinazolin-5-amine] | 115 nM
8 | COc1cccc2c1nc(N)n1nc(C3CCCC(N)C3)nc21 (single isomer, unassigned) [Example 30D, 2-(3-aminocyclohexyl)-7-methoxy-[1,2,4]triazolo[1,5-c]quinazolin-5-amine] | 660 nM
9 | COc1cccc2c1nc(N)n1nc(C3CCCCN(CC(F)(F)F)C3)nc21 (single isomer, unassigned) [Example 32A, 7-methoxy-2-(1-(2,22-trifluoroethyl)azepan-3-yl)-[1,2,4]triazolo[1,5-c]quinazolin-5-amine] | 0.7 nM
10 | COc1cccc2c1nc(N)n1nc(C3CCCCN(CC(F)(F)F)C3)nc21 (single isomer, unassigned) [Example 32B, 7-methoxy-2-(1-(2,22-trifluoroethyl)azepan-3-yl)-[1,2,4]triazolo[1,5-c]quinazolin-5-amine] | 5.9 nM
11 | COc1cccc2c1nc(N)n1nc(C3CNCC(F)(F)C3)nc21 (single isomer, unassigned) [Example 33A, 2-(5,5-difluoropiperidin-3-1-yl)-7-methoxy-[1,2,4]triazolo[1,5-c]quinazolin-5-amine] | 5.3 nM
12 | COc1cccc2c1nc(N)n1nc(C3CNCC(F)(F)C3)nc21 (single isomer, unassigned) [Example 33B, 2-(5,5-difluoropiperidin-3-1-yl)-7-methoxy-[1,2,4]triazolo[1,5-c]quinazolin-5-amine] | 2.4 nM
13 | COc1cccc2c1nc(N)n1nc(C3CN(CC(F)F)CC(F)(F)C3)nc21 (single isomer, unassigned) [Example 34A, 2-(1-(2,2-difluoroethyl)-5,5-difluoropiperidin-3-yl)-7-methoxy-[1,2,4]triazolo[1,5-c]quinazolin-5-amine] | 1.1 nM
14 | COc1cccc2c1nc(N)n1nc(C3CN(CC(F)F)CC(F)(F)C3)nc21 (single isomer, unassigned) [Example 34B, 2-(1-(2,2-difluoroethyl)-5,5-difluoropiperidin-3-yl)-7-methoxy-[1,2,4]triazolo[1,5-c]quinazolin-5-amine] | 4.7 nM
15 | COc1cccc2c1nc(N)n1nc(C3CC4CCC3N(CC(F)(F)F)C4)nc21 (single isomer, unassigned) [Example 35A, 7-methoxy-2-(2-(2,2,2-trifluoroethyl)-2-azabicyclo[2.2.2]octan-6-yl)-[1,2,4]triazolo[1,5-c]quinazolin-5-amine] | 21 nM
16 | COc1cccc2c1nc(N)n1nc(C3CC4CCC3N(CC(F)(F)F)C4)nc21 (single isomer, unassigned) [Example 35B, 7-methoxy-2-(2-(2,2,2-trifluoroethyl)-2-azabicyclo[2.2.2]octan-6-yl)-[1,2,4]triazolo[1,5-c]quinazolin-5-amine] | 54 nM
17 | COc1cccc2c1nc(N)n1nc(C3CC4CCC3N(CC(F)(F)F)C4)nc21 (single isomer, unassigned) [Example 35C, 7-methoxy-2-(2-(2,2,2-trifluoroethyl)-2-azabicyclo[2.2.2]octan-6-yl)-[1,2,4]triazolo[1,5-c]quinazolin-5-amine] | 0.3 nM
18 | COc1cccc2c1nc(N)n1nc(C3CC4CCC3N(CC(F)(F)F)C4)nc21 (single isomer, unassigned) [Example 35D, 7-methoxy-2-(2-(2,2,2-trifluoroethyl)-2-azabicyclo[2.2.2]octan-6-yl)-[1,2,4]triazolo[1,5-c]quinazolin-5-amine] | 9.9 nM
19 | COc1cccc2c1nc(N)n1nc(C3CC(F)(F)CCO3)nc21 (single isomer, unassigned) [Example 55A, 2-(4,4-difluorotetrahydro-2H-pyran-2-yl)-7-methoxy-[1,2,4]triazolo[1,5-c]quinazolin-5-amine] | 1.9 nM
20 | COc1cccc2c1nc(N)n1nc(C3CC(F)(F)CCO3)nc21 (single isomer, unassigned) [Example 55B, 2-(4,4-difluorotetrahydro-2H-pyran-2-yl)-7-methoxy-[1,2,4]triazolo[1,5-c]quinazolin-5-amine] | 2 nM
21 | COc1cccc2c1nc(N)n1nc(C3CCC(F)(F)CN3)nc21 (single isomer, unassigned) [Example 58A, 2-(5,5-difluoropiperidin-2-yl)-7-methoxy-[1,2,4]triazolo[1,5-c]quinazolin-5-amine] | 2.4 nM
22 | COc1cccc2c1nc(N)n1nc(C3CCC(F)(F)CN3)nc21 (single isomer, unassigned) [Example 58B, 2-(5,5-difluoropiperidin-2-yl)-7-methoxy-[1,2,4]triazolo[1,5-c]quinazolin-5-amine] | 0.3 nM

Same assay, conditions: values marked ^: 1 μg of membrane/well (HEK293 cells expressing the human A2a receptor); 0.5 nM tritiated radioligand; Cheng-Prusoff

Row | Structure (SMILES) | Ki
23 | Nc1nc2c(Cl)cccc2c2nc(C3CCCN(CCC(F)(F)F)C3)nn12 (racemic) [Example 27, (±)-7-chloro-2-(1-(3,3,3-trifluoropropyl)piperidin-3-yl)-[1,2,4]triazolo[1,5-c]quinazolin-5-amine] | 9.7 nM
24 | COc1cccc2c1nc(N)n1nc(C3CCN(c4cccc(F)c4)C3)nc21 (racemic) [Example 51, (±)-2-(1-(3-fluorophenyl)pyrrolidin-3-yl)-7-methoxy[1,2,4]triazolo[1,5-c]quinazolin-5-amine] | 1.4 nM
25 | COc1cccc2c1nc(N)n1nc(C3CCCN(c4ccccc4)C3)nc21 (single isomer, unassigned) [Example 50A, 7-methoxy-2-(1-phenylpiperidin-3-yl)-[1,2,4]triazolo[1,5-c]quinazolin-5-amine] | 0.9 nM
26 | COc1cccc2c1nc(N)n1nc(C3CCCN(c4ccccc4)C3)nc21 (single isomer, unassigned) [Example 50B, 7-methoxy-2-(1-phenylpiperidin-3-yl)-[1,2,4]triazolo[1,5-c]quinazolin-5-amine] | 34 nM
27 | Nc1nc2c3c(ccc2c2nc(C4CCCN(CCC(F)(F)F)C4)nn12)OC(F)(F)O3 (single isomer, unassigned) [Example 56A] | 0.8 nM
28 | Nc1nc2c3c(ccc2c2nc(C4CCCN(CCC(F)(F)F)C4)nn12)OC(F)(F)O3 (single isomer, unassigned) [Example 56B] | 55 nM
